Laboratory results: article PMC3655264, “A Large-Scale Conformational Change Couples Membrane Recruitment to Cargo Binding in the AP2 Clathrin Adaptor Complex” (Cell, 2010)

Legend:
Assay in all cases: SPR, PtdIns4,5P2-containing liposomes on L1 chip
AP2 core [1] = biological target: T1, AP2 core (Rattus norvegicus; Mus musculus; Homo sapiens, UniProt P18484+P63010+P84092, form not given, species not given); conditions: apparent, multivalent membrane binding
T1 construct: gene Ap2a2; heterotetrameric 200 kDa core: alpha trunk-GST, His6-beta2 trunk, mu2 with myc tag (MEQKLI) in surface loop at residue 236, untagged sigma2; E. coli; with AP-2 complex subunit sigma
Target sequence in this assay (P62743 whole entry): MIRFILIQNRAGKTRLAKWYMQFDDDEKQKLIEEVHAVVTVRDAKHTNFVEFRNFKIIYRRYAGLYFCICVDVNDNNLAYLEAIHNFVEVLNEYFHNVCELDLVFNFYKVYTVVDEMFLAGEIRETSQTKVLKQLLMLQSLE
Target sequence in this assay (P18484 1-620): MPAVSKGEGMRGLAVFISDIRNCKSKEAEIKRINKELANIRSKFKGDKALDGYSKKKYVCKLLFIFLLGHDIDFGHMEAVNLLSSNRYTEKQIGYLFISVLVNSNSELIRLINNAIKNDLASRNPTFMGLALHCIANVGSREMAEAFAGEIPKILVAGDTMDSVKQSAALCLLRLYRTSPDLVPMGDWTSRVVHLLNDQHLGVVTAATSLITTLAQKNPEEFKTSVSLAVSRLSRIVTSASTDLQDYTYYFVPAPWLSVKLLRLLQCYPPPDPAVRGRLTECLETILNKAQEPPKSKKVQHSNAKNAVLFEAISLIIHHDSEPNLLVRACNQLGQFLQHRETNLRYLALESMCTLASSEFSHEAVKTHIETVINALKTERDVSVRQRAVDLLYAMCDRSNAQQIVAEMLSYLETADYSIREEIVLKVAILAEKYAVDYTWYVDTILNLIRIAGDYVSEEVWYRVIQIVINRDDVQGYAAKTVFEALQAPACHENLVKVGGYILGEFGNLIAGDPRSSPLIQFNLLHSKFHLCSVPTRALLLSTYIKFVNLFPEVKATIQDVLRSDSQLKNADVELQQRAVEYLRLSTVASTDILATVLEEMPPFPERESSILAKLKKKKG
Target sequence in this assay (P84092 whole entry): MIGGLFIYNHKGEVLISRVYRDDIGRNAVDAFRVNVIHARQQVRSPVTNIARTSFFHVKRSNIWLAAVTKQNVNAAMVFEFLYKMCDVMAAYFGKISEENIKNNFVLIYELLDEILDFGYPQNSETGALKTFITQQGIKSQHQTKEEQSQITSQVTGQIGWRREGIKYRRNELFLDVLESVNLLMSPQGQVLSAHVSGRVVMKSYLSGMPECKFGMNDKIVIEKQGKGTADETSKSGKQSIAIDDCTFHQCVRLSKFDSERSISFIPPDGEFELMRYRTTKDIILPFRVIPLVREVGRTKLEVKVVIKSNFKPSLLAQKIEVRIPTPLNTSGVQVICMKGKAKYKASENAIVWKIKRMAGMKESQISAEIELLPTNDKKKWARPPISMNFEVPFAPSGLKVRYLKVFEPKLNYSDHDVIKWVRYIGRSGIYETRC
Target sequence in this assay (P63010 1-592): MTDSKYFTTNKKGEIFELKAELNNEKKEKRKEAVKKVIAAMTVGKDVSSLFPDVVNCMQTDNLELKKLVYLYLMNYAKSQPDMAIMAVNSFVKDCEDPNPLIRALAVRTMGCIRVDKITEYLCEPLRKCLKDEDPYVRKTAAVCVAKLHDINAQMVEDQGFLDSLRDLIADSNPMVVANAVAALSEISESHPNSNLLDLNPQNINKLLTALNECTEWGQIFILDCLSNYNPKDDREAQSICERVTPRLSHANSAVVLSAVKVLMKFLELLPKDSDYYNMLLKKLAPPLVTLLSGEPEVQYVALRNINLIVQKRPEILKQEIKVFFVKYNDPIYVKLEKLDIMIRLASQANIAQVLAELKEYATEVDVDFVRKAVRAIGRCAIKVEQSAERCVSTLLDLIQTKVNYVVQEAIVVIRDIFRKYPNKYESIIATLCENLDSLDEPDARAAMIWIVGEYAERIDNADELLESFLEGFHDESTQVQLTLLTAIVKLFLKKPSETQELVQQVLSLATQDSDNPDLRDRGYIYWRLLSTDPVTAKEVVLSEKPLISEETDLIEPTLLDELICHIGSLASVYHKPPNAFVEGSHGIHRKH

AP2 core [2] = biological target: T1, AP2 core; conditions: apparent, multivalent membrane binding; five lysines of the second basic region (Lys330-Lys373) of C-mu2 to Glu, which five not told
From the text: SPR, PtdIns4,5P2-containing liposomes on L1 chip on AP2 core | (5K>E) slightly weakens the binding of AP2 cores to PtdIns4,5P2-containing membranes
Target sequence in this assay (P18484 1-620): as the sequence (P18484 1-620) above
Target sequence in this assay (P84092 whole entry): as the sequence (P84092 whole entry) above
Target sequence in this assay (P62743 whole entry, further chain): as the sequence (P62743 whole entry) above
Target sequence in this assay (P63010 1-592): as the sequence (P63010 1-592) above

AP2 core [3] = biological target: T2, AP2 core (Rattus norvegicus; Mus musculus; Homo sapiens, UniProt P18484+P63010+P84092); conditions: apparent, multivalent membrane binding (sites on alpha, beta2, mu2); no cargo peptide; 10 mM Tris pH 8.7, 250 mM NaCl
T2 construct: gene Ap2a2; heterotetrameric 200 kDa core: alpha trunk-GST, His6-beta2 trunk, mu2 with myc tag (MEQKLI) in surface loop at residue 236, untagged sigma2; E. coli; with AP-2 complex subunit sigma
T2 sequence (P62743 whole entry): as the sequence (P62743 whole entry) above
T2 sequence (P84092 whole entry): as the sequence (P84092 whole entry) above
T2 sequence (P63010 1-592): as the sequence (P63010 1-592) above
T2 sequence (P18484 1-620): as the sequence (P18484 1-620) above

Kd (AP2 core [1]): 30 µM
Kd (AP2 core [2]): 11 µM
Kd (AP2 core [3]): 7 µM
Substance: PtdIns4,5P2
